Experimental data reported in ChEMBL document CHEMBL4321866, “Discovery of Highly Potent and Efficient PROTAC Degraders of Androgen Receptor (AR) by Employing Weak Binding Affinity VHL E3 Ligase Ligands” (J Med Chem, 2019).
One block for each compound: values may come before it. Active and inactive are the calls of the source. No cut-off for these calls is given here.

Key:
LNCaP = experiment: Antiproliferative activity against AR-positive human LNCAP cells incubated for 7 days in presence of AR agonist, R1881 by WST-8 assay; format: functional, cell-based; details: 168 h
VCaP [1] = experiment: Antiproliferative activity against AR- positive human VCaP cells incubated for 7 days in presence of AR agonist, R1881 by WST-8 assay; format: functional, cell-based; details: 168 h
[2] = molecular target: T1, von Hippel-Lindau disease tumor suppressor/Androgen receptor (Homo sapiens, UniProt P10275+P40337); experiment: Protac activity against VHL/AR in AR-positive human LNCAP cells assessed as induction of AR degradation incubated for 6 hrs by Western blot analysis; format: cell-based
[3] = molecular target: T1, von Hippel-Lindau disease tumor suppressor/Androgen receptor; experiment: Protac activity against VHL/AR in AR-positive human LNCAP cells assessed as induction of AR degradation by measuring reduction in AR protein level at 100 nM incubated for 3 hrs by Western blot analysis; format: cell-based
Target sequence in this assay (P10275 whole entry, looked up): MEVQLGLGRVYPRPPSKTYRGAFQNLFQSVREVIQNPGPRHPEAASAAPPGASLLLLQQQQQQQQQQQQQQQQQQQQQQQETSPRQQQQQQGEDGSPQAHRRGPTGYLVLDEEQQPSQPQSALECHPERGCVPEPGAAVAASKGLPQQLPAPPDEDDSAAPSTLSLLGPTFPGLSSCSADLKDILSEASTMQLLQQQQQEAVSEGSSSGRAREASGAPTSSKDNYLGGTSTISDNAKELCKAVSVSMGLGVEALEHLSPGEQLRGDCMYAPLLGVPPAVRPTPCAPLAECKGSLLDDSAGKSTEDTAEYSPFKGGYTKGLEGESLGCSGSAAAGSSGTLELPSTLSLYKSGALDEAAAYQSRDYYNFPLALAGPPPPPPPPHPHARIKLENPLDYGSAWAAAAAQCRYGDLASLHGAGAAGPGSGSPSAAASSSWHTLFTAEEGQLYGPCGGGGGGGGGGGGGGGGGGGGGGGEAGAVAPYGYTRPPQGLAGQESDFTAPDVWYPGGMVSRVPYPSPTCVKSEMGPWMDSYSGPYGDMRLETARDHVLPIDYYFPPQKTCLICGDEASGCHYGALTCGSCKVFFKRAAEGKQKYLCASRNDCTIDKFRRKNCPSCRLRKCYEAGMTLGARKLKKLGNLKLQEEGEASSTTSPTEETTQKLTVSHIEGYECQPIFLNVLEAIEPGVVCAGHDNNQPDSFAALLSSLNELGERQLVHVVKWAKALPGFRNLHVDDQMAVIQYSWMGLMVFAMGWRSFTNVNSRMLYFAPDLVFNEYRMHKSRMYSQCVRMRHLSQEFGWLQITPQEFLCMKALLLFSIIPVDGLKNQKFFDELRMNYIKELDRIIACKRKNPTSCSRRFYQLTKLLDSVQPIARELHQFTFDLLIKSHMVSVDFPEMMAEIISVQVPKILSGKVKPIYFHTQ
Target sequence in this assay (P40337 whole entry, looked up): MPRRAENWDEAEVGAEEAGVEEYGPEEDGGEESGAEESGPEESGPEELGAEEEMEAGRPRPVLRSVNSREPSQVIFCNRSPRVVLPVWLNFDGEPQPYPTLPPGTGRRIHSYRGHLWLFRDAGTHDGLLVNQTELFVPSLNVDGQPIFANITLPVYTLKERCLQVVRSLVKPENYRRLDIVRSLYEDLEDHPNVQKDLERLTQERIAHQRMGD

[4] = molecular target: T1, von Hippel-Lindau disease tumor suppressor/Androgen receptor; experiment: Protac activity against VHL/AR in AR-positive human VCaP cells assessed as induction of AR degradation by measuring reduction in AR protein level at 100 nM incubated for 3 hrs by Western blot analysis relative to control; format: cell-based; design: scale not given: the % may be the effect or the level left
Target sequence in this assay (P10275 whole entry, looked up): as the sequence (P10275 whole entry, looked up) above
Target sequence in this assay (P40337 whole entry, looked up): as the sequence (P40337 whole entry, looked up) above

[5] = molecular target: T1, von Hippel-Lindau disease tumor suppressor/Androgen receptor; experiment: Protac activity against VHL/AR in AR-positive human VCaP cells assessed as induction of AR degradation incubated for 6 hrs by Western blot analysis; format: cell-based
[6] = molecular target: T1, von Hippel-Lindau disease tumor suppressor/Androgen receptor; experiment: Protac activity against VHL/AR in AR-positive human LNCAP cells assessed as induction of AR degradation at 1 uM incubated for 6 hrs by Western blot analysis relative to control; format: cell-based
Target sequence in this assay (P10275 whole entry, looked up): as the sequence (P10275 whole entry, looked up) above
Target sequence in this assay (P40337 whole entry, looked up): as the sequence (P40337 whole entry, looked up) above

[7] = molecular target: T1, von Hippel-Lindau disease tumor suppressor/Androgen receptor; experiment: Protac activity against VHL/AR in AR-positive human LNCAP cells assessed as induction of AR degradation at 0.1 uM incubated for 6 hrs by Western blot analysis relative to control; format: cell-based
Target sequence in this assay (P10275 whole entry, looked up): as the sequence (P10275 whole entry, looked up) above
Target sequence in this assay (P40337 whole entry, looked up): as the sequence (P40337 whole entry, looked up) above

[8] = molecular target: T1, von Hippel-Lindau disease tumor suppressor/Androgen receptor; experiment: Protac activity against VHL/AR in AR-positive human LNCAP cells assessed as induction of AR degradation at 0.01 uM incubated for 6 hrs by Western blot analysis relative to control; format: cell-based
Target sequence in this assay (P10275 whole entry, looked up): as the sequence (P10275 whole entry, looked up) above
Target sequence in this assay (P40337 whole entry, looked up): as the sequence (P40337 whole entry, looked up) above

[9] = molecular target: T1, von Hippel-Lindau disease tumor suppressor/Androgen receptor; experiment: Protac activity against VHL/AR in AR-positive human LNCAP cells assessed as reduction in PSA mRNA expression level incubated for 24 hrs by qRT-PCR analysis; format: cell-based
Target sequence in this assay (P10275 whole entry, looked up): as the sequence (P10275 whole entry, looked up) above
Target sequence in this assay (P40337 whole entry, looked up): as the sequence (P40337 whole entry, looked up) above

[10] = molecular target: T1, von Hippel-Lindau disease tumor suppressor/Androgen receptor; experiment: Protac activity against VHL/AR in AR-positive human 22Rv1 cells assessed as induction of AR degradation by measuring reduction in AR protein level at 10 nM incubated for 6 hrs by Western blot analysis relative to control; design: scale not given: the % may be the effect or the level left
[11] = molecular target: T1, von Hippel-Lindau disease tumor suppressor/Androgen receptor; experiment: Protac activity against VHL/AR in AR-positive human LNCAP cells assessed as AR degradation at 100 nM preincubated with NEDD8-activating E1 enzyme inhibitor, MLN4924 for 2 hrs followed by incubation with compound for 6 hrs by Western blot analysis; format: cell-based
[12] = molecular target: T1, von Hippel-Lindau disease tumor suppressor/Androgen receptor; experiment: Protac activity against VHL/AR in AR-positive human LNCAP cells assessed as AR degradation at 100 nM preincubated with proteasome inhibitor, MG132 for 2 hrs followed by incubation with compound for 6 hrs by Western blot analysis; format: cell-based
[13] = molecular target: T1, von Hippel-Lindau disease tumor suppressor/Androgen receptor; experiment: Protac activity against VHL/AR in AR-positive human VCaP cells assessed as reduction in ERG mRNA expression level incubated for 24 hrs by qRT-PCR analysis relative to N-((1r,3r)-3-(3-Chloro-4-cyanophenoxy)-2,2,4,4-tetramethylcyclobutyl)-1-(2-hydroxyethyl)-1H-pyrazole-4-carboxamide; format: cell-based
[14] = molecular target: T1, von Hippel-Lindau disease tumor suppressor/Androgen receptor; experiment: Protac activity against VHL/AR in AR-positive human LNCAP cells assessed as reduction in TMPRSS2 mRNA expression level at 10 nM incubated for 24 hrs by qRT-PCR analysis relative to control; format: cell-based; design: scale not given: the % may be the effect or the level left
[15] = molecular target: T1, von Hippel-Lindau disease tumor suppressor/Androgen receptor; experiment: Protac activity against VHL/AR in AR-positive human LNCAP cells assessed as reduction in TMPRSS2 mRNA expression level incubated for 24 hrs by qRT-PCR analysis relative to N-((1r,3r)-3-(3-Chloro-4-cyanophenoxy)-2,2,4,4-tetramethylcyclobutyl)-1-(2-hydroxyethyl)-1H-pyrazole-4-carboxamide; format: cell-based
[16] = molecular target: T1, von Hippel-Lindau disease tumor suppressor/Androgen receptor; experiment: Protac activity against VHL/AR in AR-positive human LNCAP cells assessed as AR degradation at 100 nM preincubated with AR antagonist N-((1r,3r)-3-(3-Chloro-4-cyanophenoxy)-2,2,4,4-tetramethylcyclobutyl)-1-(2-hydroxyethyl)-1H-pyrazole-4-carboxamide for 2 hrs followed by incubation with compound addition for 6 hrs by Western blot analysis; format: cell-based
[17] = molecular target: T1, von Hippel-Lindau disease tumor suppressor/Androgen receptor; experiment: Protac activity against VHL/AR in AR-positive human LNCAP cells assessed as reduction in TMPRSS2 mRNA expression level incubated for 24 hrs by qRT-PCR analysis; format: cell-based
VCaP [18] = experiment: Potency index, ratio of IC50 for AR antagonist N-((1r,3r)-3-(3-Chloro-4-cyanophenoxy)-2,2,4,4-tetramethylcyclobutyl)-1-(2-hydroxyethyl)-1H-pyrazole-4-carboxamide to IC50 for test compound against AR-positive human VCaP cells incubated for 7 days in presence of AR agonist R1881 by WST-8 assay; format: functional
[19] = molecular target: T1, von Hippel-Lindau disease tumor suppressor/Androgen receptor; experiment: Protac activity against VHL/AR in AR-positive human VCaP cells assessed as reduction in FKBP5 mRNA expression level incubated for 24 hrs by qRT-PCR analysis relative to N-((1r,3r)-3-(3-Chloro-4-cyanophenoxy)-2,2,4,4-tetramethylcyclobutyl)-1-(2-hydroxyethyl)-1H-pyrazole-4-carboxamide; format: cell-based
[20] = molecular target: T1, von Hippel-Lindau disease tumor suppressor/Androgen receptor; experiment: Protac activity against VHL/AR in AR-positive human VCaP cells assessed as induction of AR degradation by measuring reduction in AR protein level at 30 nM incubated for 6 hrs by Western blot analysis relative to control; format: cell-based; design: scale not given: the % may be the effect or the level left
[21] = molecular target: T1, von Hippel-Lindau disease tumor suppressor/Androgen receptor; experiment: Protac activity against VHL/AR in AR-positive human LNCAP cells assessed as reduction in PSA mRNA expression level at 10 nM incubated for 24 hrs by qRT-PCR analysis relative to control; format: cell-based; design: scale not given: the % may be the effect or the level left
[22] = molecular target: T1, von Hippel-Lindau disease tumor suppressor/Androgen receptor; experiment: Protac activity against VHL/AR in AR-positive human LNCAP cells assessed as reduction in FKBP5 mRNA expression level incubated for 24 hrs by qRT-PCR analysis relative to N-((1r,3r)-3-(3-Chloro-4-cyanophenoxy)-2,2,4,4-tetramethylcyclobutyl)-1-(2-hydroxyethyl)-1H-pyrazole-4-carboxamide; format: cell-based
[23] = molecular target: T1, von Hippel-Lindau disease tumor suppressor/Androgen receptor; experiment: Protac activity against VHL/AR in AR-positive human VCaP cells assessed as reduction in TMPRSS2 mRNA expression level incubated for 24 hrs by qRT-PCR analysis relative to N-((1r,3r)-3-(3-Chloro-4-cyanophenoxy)-2,2,4,4-tetramethylcyclobutyl)-1-(2-hydroxyethyl)-1H-pyrazole-4-carboxamide; format: cell-based
[24] = molecular target: T1, von Hippel-Lindau disease tumor suppressor/Androgen receptor; experiment: Protac activity against VHL/AR in AR-positive human LNCAP cells assessed as reduction in PSA mRNA expression level incubated for 24 hrs by qRT-PCR analysis relative to N-((1r,3r)-3-(3-Chloro-4-cyanophenoxy)-2,2,4,4-tetramethylcyclobutyl)-1-(2-hydroxyethyl)-1H-pyrazole-4-carboxamide; format: cell-based
[25] = molecular target: T1, von Hippel-Lindau disease tumor suppressor/Androgen receptor; experiment: Protac activity against VHL/AR in AR-positive human LNCAP cells assessed as reduction in FKBP5 mRNA expression level incubated for 24 hrs by qRT-PCR analysis; format: cell-based
[26] = molecular target: T1, von Hippel-Lindau disease tumor suppressor/Androgen receptor; experiment: Protac activity against VHL/AR in AR-positive human 22Rv1 cells assessed as induction of AR degradation incubated for 6 hrs by Western blot analysis
[27] = molecular target: T1, von Hippel-Lindau disease tumor suppressor/Androgen receptor; experiment: Protac activity against VHL/AR in AR-positive human LNCAP cells assessed as induction of AR degradation by measuring reduction in AR protein level at 30 nM incubated for 6 hrs by Western blot analysis relative to control; format: cell-based; design: scale not given: the % may be the effect or the level left
[28] = molecular target: T1, von Hippel-Lindau disease tumor suppressor/Androgen receptor; experiment: Protac activity against VHL/AR in AR-positive human LNCAP cells assessed as AR degradation at 100 nM preincubated with VHL ligand VHLa for 2 hrs followed by incubation with compound for 6 hrs by Western blot analysis; format: cell-based
[29] = molecular target: T1, von Hippel-Lindau disease tumor suppressor/Androgen receptor; experiment: Protac activity against VHL/AR in AR-positive human LNCAP cells assessed as reduction in FKBP5 mRNA expression level at 10 nM incubated for 24 hrs by qRT-PCR analysis relative to control; format: cell-based; design: scale not given: the % may be the effect or the level left
[30] = Inhibition of His-TEV-tagged VHL (54 to 213 residues) (unknown origin)/Elongin B (1 to 118 residues)/Elongin C (1 to 96 residues) expressed in Escherichia coli BL21(DE3) incubated for 60 mins by FP assay; design: species or system Homo sapiens

Structure (SMILES): CNC(=O)c1ccc(N2C(=S)N(c3ccc(C#N)c(C(F)(F)F)c3)C(=O)C2(C)C)cc1F [ENZALUTAMIDE]
IC50 (LNCaP): 151 nM | IC50 (VCaP [1]): 364 nM

Structure (SMILES): CC1(C)[C@H](NC(=O)c2cnn(CCO)c2)C(C)(C)[C@H]1Oc1ccc(C#N)c(Cl)c1
IC50 (LNCaP): 64.5 nM | IC50 (VCaP [1]): 182 nM

More lines, main results first:

DC50 [2]: 7.2 nM | Activity [3]: Active | Activity [4]: > 90% | DC50 [5]: 1 nM | IC50 (LNCaP): 2 nM | Activity [6]: > 99% | IC50 (VCaP [1]): 2 nM | Activity [7]: > 95% | Activity [8]: 76%
Structure (SMILES): Cc1cc([C@H](C(=O)N2C[C@H](O)C[C@H]2C(=O)N[C@@H](CC(=O)N2CCC(N3CCC(C#Cc4ccc(C(=O)N[C@H]5C(C)(C)[C@H](Oc6ccc(C#N)c(Cl)c6)C5(C)C)cc4)CC3)CC2)c2ccc(-c3scnc3C)cc2)C(C)C)on1

Activity [9]: Dose-dependent effect | Activity [10]: > 95% | Activity [11]: inactive | Activity [12]: inactive | fold change (FC) [13]: > 10 | Activity [14]: > 50% | fold change (FC) [15]: > 10 | Activity [2]: Dose-dependent effect | DC50 [2]: 0.535 nM | Activity [3]: Active | Activity [16]: inactive | Activity [17]: Dose-dependent effect | fold change (FC) [19]: > 10 | Activity [20]: > 95% | Activity [4]: > 90% | Activity [5]: Dose-dependent effect | DC50 [5]: 0.969 nM | Activity [21]: > 50% | IC50 (LNCaP): 2 nM | Activity [6]: > 99% | IC50 (VCaP [1]): 6 nM | fold change (FC) [22]: > 10 | fold change (FC) [23]: > 10 | fold change (FC) [24]: > 10 | Activity [7]: > 95% | Activity [8]: 90% | Activity [25]: Dose-dependent effect | Activity [26]: Dose-dependent effect | DC50 [26]: 0.153 nM | Activity [27]: > 95% | Activity [28]: inactive | Activity [29]: > 50%
Structure (SMILES): Cc1cc([C@H](C(=O)N2C[C@H](O)C[C@H]2C(=O)N[C@@H](CC(=O)N2CCC(C#Cc3ccc(C(=O)N[C@H]4C(C)(C)[C@H](Oc5ccc(C#N)c(Cl)c5)C4(C)C)cc3)CC2)c2ccccc2)C(C)C)on1
Ratio IC50 (VCaP [18]): 30

IC50 [30]: 210 nM
Structure (SMILES): C#Cc1ccc([C@H](CC(=O)NC)NC(=O)[C@@H]2C[C@@H](O)CN2C(=O)[C@@H](c2cc(C)no2)C(C)C)cc1
Ki [30]: 58 nM
